This passage reports IC50 and Selectivity results from patent publication US20210186970A1, “SELECTIVE CALCIUM CHANNEL ANTAGONISTS” (Northwestern University, priority 2011, published 2021).

Read-outs that look alike come from different tables or passages of the source.

For experiment [1], the target named is T1, Cav1.3 L-type Ca channels (Rattus norvegicus, UniProt P27732).
T1 construct: expressed in transfected cells; host or cells: HEK293
Kind of experiment: FLIPR Fluo-8 calcium assay, Cav1.3 channel inhibition in HEK293 cells. The experiment is classed as cell-based. To be noted: for Selectivity: ratio of IC50 Cav1.2 to Cav1.3.

For experiment [2], the target named is Cav1.2 L-type Ca channels (Oryctolagus cuniculus, UniProt P15381). Put plainly: FLIPR Fluo-8 calcium assay, Cav1.2 channel inhibition in HEK293 cells.
[3] abbreviates: Table 4, 12 concentration points (0.1 nM~100 μM) in duplicate, read-out: IC50 (μM) Cav1.3.
The mark [4] stands for this setting: third library, FLIPR, HEK293, value (±SD), read-out: IC50 (μM) Cav1.3.
The mark [5] stands for this setting: IC50 (μM) Cav1.2, Table 4, 12 concentration points (0.1 nM~100 μM) in duplicate.
Setting [6] is: IC50 (μM) Cav1.2, third library, FLIPR, HEK293, value (±SD).
Where [7] appears, read: IC50 (μM) Cav1.3, third library, FLIPR, HEK293, value (±SD).
Setting [8] is: IC50 (μM) CaV1.3, first library, FLIPR, HEK293, value (±SD).
[9] abbreviates: IC50 (μM) CaV1.2, first library, FLIPR, HEK293, value (±SD).

Cav1.2 L-type Ca channels, sequence (P15381 whole entry): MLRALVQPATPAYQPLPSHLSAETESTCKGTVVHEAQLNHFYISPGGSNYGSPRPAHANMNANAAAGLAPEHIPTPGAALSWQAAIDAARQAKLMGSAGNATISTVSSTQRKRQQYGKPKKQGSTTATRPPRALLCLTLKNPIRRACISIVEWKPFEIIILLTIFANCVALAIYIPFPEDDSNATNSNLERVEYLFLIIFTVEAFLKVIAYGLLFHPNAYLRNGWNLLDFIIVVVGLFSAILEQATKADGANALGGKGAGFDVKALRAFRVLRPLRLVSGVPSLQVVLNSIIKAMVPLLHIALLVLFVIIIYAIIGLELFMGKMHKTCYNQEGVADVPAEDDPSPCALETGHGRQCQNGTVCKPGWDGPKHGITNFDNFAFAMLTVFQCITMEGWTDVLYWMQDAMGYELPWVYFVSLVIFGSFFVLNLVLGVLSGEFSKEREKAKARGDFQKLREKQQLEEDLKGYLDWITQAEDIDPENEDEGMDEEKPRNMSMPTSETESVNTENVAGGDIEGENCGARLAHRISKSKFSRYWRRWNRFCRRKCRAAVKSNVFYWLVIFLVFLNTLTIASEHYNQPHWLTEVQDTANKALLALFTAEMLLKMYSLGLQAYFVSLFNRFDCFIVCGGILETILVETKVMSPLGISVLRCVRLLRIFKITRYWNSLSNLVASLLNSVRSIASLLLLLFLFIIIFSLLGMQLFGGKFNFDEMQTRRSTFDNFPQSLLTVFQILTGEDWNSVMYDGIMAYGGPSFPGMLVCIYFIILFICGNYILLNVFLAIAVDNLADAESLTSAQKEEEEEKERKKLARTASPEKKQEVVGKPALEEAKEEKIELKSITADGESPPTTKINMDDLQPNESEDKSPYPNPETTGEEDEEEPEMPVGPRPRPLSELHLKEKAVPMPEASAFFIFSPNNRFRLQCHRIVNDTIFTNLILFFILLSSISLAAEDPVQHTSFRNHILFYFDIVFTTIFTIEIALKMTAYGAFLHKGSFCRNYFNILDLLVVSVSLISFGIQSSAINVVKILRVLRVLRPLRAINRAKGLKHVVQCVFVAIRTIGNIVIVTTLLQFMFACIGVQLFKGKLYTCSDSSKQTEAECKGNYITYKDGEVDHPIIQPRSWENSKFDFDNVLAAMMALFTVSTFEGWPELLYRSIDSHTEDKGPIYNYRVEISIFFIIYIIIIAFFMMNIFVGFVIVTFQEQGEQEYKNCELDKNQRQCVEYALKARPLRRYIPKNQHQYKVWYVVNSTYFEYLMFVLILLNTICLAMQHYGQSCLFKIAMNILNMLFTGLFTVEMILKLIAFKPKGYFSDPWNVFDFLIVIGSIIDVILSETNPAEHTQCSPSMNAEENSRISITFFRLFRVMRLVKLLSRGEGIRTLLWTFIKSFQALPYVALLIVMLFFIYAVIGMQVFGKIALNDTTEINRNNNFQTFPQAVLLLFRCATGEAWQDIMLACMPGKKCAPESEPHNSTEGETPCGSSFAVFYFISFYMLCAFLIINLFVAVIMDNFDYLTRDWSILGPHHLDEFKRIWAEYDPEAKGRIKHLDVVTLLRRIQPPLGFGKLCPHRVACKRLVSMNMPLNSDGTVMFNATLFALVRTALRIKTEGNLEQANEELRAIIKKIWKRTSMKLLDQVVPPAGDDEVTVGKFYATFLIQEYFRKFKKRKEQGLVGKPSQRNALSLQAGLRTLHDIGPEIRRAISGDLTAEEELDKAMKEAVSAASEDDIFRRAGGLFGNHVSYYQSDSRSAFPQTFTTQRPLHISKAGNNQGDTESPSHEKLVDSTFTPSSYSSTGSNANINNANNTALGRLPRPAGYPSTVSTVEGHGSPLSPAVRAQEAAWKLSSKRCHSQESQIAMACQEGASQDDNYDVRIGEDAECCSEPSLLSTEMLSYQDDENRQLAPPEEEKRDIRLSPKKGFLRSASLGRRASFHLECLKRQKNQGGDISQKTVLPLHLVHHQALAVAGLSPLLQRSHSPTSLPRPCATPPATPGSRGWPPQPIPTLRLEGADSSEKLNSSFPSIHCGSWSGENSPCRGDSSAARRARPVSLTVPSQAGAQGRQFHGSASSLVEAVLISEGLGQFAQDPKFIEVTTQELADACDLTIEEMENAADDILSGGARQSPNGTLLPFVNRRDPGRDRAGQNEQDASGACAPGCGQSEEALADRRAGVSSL
Cav1.2 L-type Ca channels, sequence (P54284 whole entry partner): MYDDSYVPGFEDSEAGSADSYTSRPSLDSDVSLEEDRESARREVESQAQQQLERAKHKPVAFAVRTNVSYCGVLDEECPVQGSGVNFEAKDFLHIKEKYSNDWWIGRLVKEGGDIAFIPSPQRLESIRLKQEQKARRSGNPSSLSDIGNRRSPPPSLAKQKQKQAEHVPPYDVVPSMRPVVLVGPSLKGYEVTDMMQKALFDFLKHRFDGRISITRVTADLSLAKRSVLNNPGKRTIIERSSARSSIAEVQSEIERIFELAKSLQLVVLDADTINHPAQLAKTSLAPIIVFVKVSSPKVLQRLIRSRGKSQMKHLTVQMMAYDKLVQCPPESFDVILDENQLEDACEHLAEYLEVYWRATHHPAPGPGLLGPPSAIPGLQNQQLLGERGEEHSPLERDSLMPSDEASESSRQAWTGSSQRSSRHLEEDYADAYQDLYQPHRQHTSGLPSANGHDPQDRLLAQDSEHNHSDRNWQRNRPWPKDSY
Cav1.2 L-type Ca channels, sequence (P54289 25-956 partner limits assumed): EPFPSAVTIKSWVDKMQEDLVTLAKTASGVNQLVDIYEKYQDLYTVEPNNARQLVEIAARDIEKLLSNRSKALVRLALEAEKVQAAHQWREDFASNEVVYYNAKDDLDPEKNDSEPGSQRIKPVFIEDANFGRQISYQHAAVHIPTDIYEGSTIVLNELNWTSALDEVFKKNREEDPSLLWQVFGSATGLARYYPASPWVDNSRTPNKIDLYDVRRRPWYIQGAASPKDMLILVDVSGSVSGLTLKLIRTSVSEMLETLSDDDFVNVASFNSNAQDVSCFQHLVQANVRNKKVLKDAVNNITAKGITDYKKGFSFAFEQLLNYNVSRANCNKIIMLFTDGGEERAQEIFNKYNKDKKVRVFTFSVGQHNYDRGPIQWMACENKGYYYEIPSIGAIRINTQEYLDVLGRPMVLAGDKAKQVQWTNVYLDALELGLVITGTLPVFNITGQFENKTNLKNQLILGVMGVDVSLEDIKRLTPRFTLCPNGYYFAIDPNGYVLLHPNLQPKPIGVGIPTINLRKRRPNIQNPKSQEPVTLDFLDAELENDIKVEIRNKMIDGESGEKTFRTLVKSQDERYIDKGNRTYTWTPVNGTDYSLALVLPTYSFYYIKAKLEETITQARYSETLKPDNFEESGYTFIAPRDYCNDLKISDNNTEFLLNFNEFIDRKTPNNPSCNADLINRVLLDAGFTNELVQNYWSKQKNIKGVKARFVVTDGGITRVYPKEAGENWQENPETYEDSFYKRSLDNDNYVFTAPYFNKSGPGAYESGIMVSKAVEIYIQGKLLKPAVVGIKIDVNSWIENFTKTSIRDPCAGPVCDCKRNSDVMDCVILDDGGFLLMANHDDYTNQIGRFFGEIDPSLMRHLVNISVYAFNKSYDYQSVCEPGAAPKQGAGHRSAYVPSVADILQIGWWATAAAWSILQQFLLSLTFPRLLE
Cav1.2 L-type Ca channels, sequence (P54289 957-1103 partner limits assumed): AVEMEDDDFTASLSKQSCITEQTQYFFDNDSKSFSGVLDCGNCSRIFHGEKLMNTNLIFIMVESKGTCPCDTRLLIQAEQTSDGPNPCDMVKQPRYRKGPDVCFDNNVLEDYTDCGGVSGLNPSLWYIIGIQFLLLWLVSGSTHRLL

For `O=C1CC(=O)N([C@@H]2C[C@@H]3CC[C@H]2C3)C(=O)N1CCc1cccc(Cl)c1` (racemic) [Compound 9, N-(3-chlorophenethyl)-N′-(+)-endo-norbornyl-pyrimidine-2,4,6-(1H,3H,5H)-trione], the 50% inhibitory concentration (IC50) worked out at 0.8 µM in experiment [1] (setting [3]); 0.8 µM in experiment [1] (read-out: IC50 with Cav1.3); 0.8 µM in experiment [1] (setting [4]); 20.1 µM in experiment [2] (setting [5]); 20.1 µM in experiment [2] (setting [6]).
Turning to `O=C1CC(=O)N(C2CC3CCC2C3)C(=O)N1CCc1ccc(Cl)cc1` (racemic) [Compound 10, N-(4-chlorophenethyl)-N′-(+)-endo-norbornyl-pyrimidine-2,4,6-(1H,3H,5H)-trione], the IC50 in experiment [1] (setting [3]) turned out to be 0.6 µM; in experiment [1] (read-out: IC50 with Cav1.3), 0.6 µM; in experiment [1] (setting [4]), 0.6 µM; in experiment [2] (setting [5]), 13.5 µM; in experiment [2] (setting [6]), 13.5 µM.
Regarding `CC(Cc1ccccc1)N1C(=O)CC(=O)N(C2CCCC2)C1=O` (racemic) [Compound 95], the values for the 50% inhibitory concentration (IC50) in experiment [1] (setting [7]) and in experiment [2] (setting [6]) were 0.7 µM and 16 µM, respectively. Also, the Selectivity in experiment [1] (third library) was 23.0.
Consider `CC(CN1C(=O)CC(=O)N(C2CCCC2)C1=O)c1ccccc1` (racemic) [Compound 96], for which the IC50 amounted to 1 µM in experiment [1] (setting [7]) and 16.9 µM in experiment [2] (setting [6]). Besides, in experiment [1] (third library), the Selectivity came to 17.6.
For `O=C1CC(=O)N([C@H]2C[C@@H]3CC[C@H]2C3)C(=O)N1CCc1cccc(Cl)c1` (racemic) [Compound 112], the IC50 came out at 1.9 µM in experiment [1] (setting [4]) and 6.3 µM in experiment [2] (setting [6]).
In the case of `O=C1CC(=O)N(CCc2ccc(Cl)cc2)C(=O)N1CCc1ccc(Cl)cc1` [Compound 11], the IC50 was 1.8 µM in experiment [1] (setting [8]) and 2.1 µM in experiment [2] (setting [9]). The Selectivity in experiment [1] (first library) was 1.2.
As to `O=C1CC(=O)N(CCc2cccc(Cl)c2)C(=O)N1CCc1ccc(Cl)cc1` [Compound 12], the IC50 came out at 1.9 µM in experiment [1] (setting [8]) and 4.4 µM in experiment [2] (setting [9]). For the same compound, the Selectivity in experiment [1] (first library) was 2.3.
Taken in the same sequence, the figures for `O=C1CC(=O)N(CCc2ccc(Cl)cc2Cl)C(=O)N1CCc1ccc(Cl)cc1` [Compound 13] were 1.8 µM, 2.8 µM and 1.5.
The corresponding values for `O=C1CC(=O)N(CCc2ccc(Cl)c(Cl)c2)C(=O)N1CCc1ccc(Cl)cc1` [Compound 14] are 1.9 µM, 1.3 µM and 0.7.
In the case of `O=C1CC(=O)N(CCc2c(Cl)cccc2Cl)C(=O)N1CCc1ccc(Cl)cc1` [Compound 15], the figures for the concentration for half-maximal inhibition (IC50) in experiment [1] (setting [8]) and in experiment [2] (setting [9]) were 2.7 µM and 1.9 µM, respectively. For the same compound, the Selectivity in experiment [1] (first library) was determined as 0.7.
Taken in the same sequence, the figures for `O=C1CC(=O)N(CCc2ccc(Br)cc2)C(=O)N1CCc1ccc(Cl)cc1` [Compound 16] were 1.6 µM, 2.1 µM and 1.3.
In the case of `Cc1ccc(CCN2C(=O)CC(=O)N(CCc3ccc(Cl)cc3)C2=O)cc1` [Compound 17], the IC50 in experiment [1] (setting [8]) was 1.1 µM; in experiment [2] (setting [9]), 7.1 µM. Besides, the Selectivity in experiment [1] (first library) was 6.7.
As for `O=C1CC(=O)N(CCc2ccc(Cl)cc2)C(=O)N1CCc1ccc(F)cc1` [Compound 18], the results for the IC50 in experiment [1] (setting [8]) and in experiment [2] (setting [9]) were 1.1 µM and 3.3 µM, respectively. Also, the Selectivity in experiment [1] (first library) is given as 3.1.
The corresponding values for `O=C1CC(=O)N(CCc2cccc(F)c2)C(=O)N1CCc1ccc(Cl)cc1` [Compound 19] are 1.9 µM, 2.8 µM and 1.5.
Taken in the same sequence, the figures for `O=C1CC(=O)N(CCc2cccc(C(F)(F)F)c2)C(=O)N1CCc1ccc(Cl)cc1` [Compound 20] were 0.4 µM, 2.8 µM and 6.2.
The corresponding values for `CC(CN1C(=O)CC(=O)N(CCc2ccc(Cl)cc2)C1=O)c1ccccc1` (stereo not drawn) [Compound 21] are 1.3 µM, 6.2 µM and 5.0.
With `O=C1CC(=O)N(Cc2cccc([N+](=O)[O-])c2)C(=O)N1CCc1ccc(Cl)cc1` [Compound 22], the half-maximal inhibitory concentration (IC50) in experiment [1] (setting [8]) was 21.2 µM; in experiment [2] (setting [9]), 9.5 µM. The Selectivity in experiment [1] (first library) was found to be 0.4.
Regarding `O=C1CC(=O)N(CCc2ccc([N+](=O)[O-])cc2)C(=O)N1CCc1ccc(Cl)cc1` [Compound 23], the IC50 in experiment [1] (first library, FLIPR, HEK293, value (±SD), read-out: IC50 (μM) CaV1.3) was determined as 3.4 µM; in experiment [2] it was 2.7 µM. The Selectivity in experiment [1] (first library) came to 0.8.
`O=C1CC(=O)N(CCc2cccc([N+](=O)[O-])c2)C(=O)N1CCc1ccc(Cl)cc1` [Compound 24]: the 50% inhibitory concentration (IC50) in experiment [1] (setting [8]) is 2.7 µM; in experiment [2] (setting [9]), 2.6 µM. Further, in experiment [1] (first library), the Selectivity worked out at 1.0.
Taken in the same sequence, the figures for `O=C1CC(=O)N(Cc2ccc(Cl)cc2)C(=O)N1CCc1ccc(Cl)cc1` [Compound 25] were 2.1 µM, 1.9 µM and 0.9.
Taken in the same sequence, the figures for `O=C1CC(=O)N(CCc2ccc(Cl)cc2)C(=O)N1CCCCc1ccccc1` [Compound 26] were 0.9 µM, 0.8 µM and 0.9.
The corresponding values for `O=C1CC(=O)N(CCc2ccc(Cl)cc2)C(=O)N1CCCc1ccccc1` [Compound 27] are 1.1 µM, 2.1 µM and 1.9.
On to `CCCCCCCCN1C(=O)CC(=O)N(CCc2ccc(Cl)cc2)C1=O` [Compound 28], for which the half-inhibitory concentration (IC50) in experiment [1] (setting [8]) is 1.5 µM; in experiment [2] (setting [9]), 2.8 µM. Further, the Selectivity in experiment [1] (first library) is reported as 1.9.
Taken in the same sequence, the figures for `O=C1CC(=O)N(C2CCCC2)C(=O)N1CCc1ccc(Cl)cc1` [Compound 29] were 1.4 µM, 22.4 µM and 16.4.
Taken in the same sequence, the figures for `O=C1CC(=O)N(C2CCCc3ccccc32)C(=O)N1CCc1ccc(Cl)cc1` (stereo not drawn) [Compound 30] were 5.6 µM, 12.8 µM and 2.3.
The corresponding values for `O=C1CC(=O)N(C2Cc3ccccc3C2)C(=O)N1CCc1ccc(Cl)cc1` [Compound 31] are 1.3 µM, 3 µM and 2.2.
With `O=C1CC(=O)N(C2CCc3ccccc32)C(=O)N1CCc1ccc(Cl)cc1` (stereo not drawn) [Compound 32], the IC50 turned out to be 8.4 µM in experiment [1] (setting [8]) and 14.5 µM in experiment [2] (setting [9]). Besides, in experiment [1] (first library), the Selectivity is 1.7.
`O=C1CC(=O)N(CCc2ccc3ccccc3c2)C(=O)N1CCc1ccc(Cl)cc1` [Compound 33]: the IC50 was 1.1 µM in experiment [1] (setting [8]) and 1.4 µM in experiment [2]. Moreover, the Selectivity in experiment [1] (first library) stood at 1.2.
On to `COC(=O)CN1C(=O)CC(=O)N(CCc2ccc(Cl)cc2)C1=O` [Compound 34], for which the concentration for half-maximal inhibition (IC50) in experiment [1] (setting [8]) is 108 µM.
For the compound `COC(=O)[C@H](C)N1C(=O)CC(=O)N(CCc2ccc(Cl)cc2)C1=O` [Compound 35], the half-maximal inhibitory concentration (IC50) in experiment [1] (setting [8]) amounted to 77.7 µM; in experiment [2] (setting [9]), 88.2 µM. Besides, the Selectivity in experiment [1] (first library) was found to be 1.1.
Regarding `COC(=O)[C@H](CC(C)C)N1C(=O)CC(=O)N(CCc2ccc(Cl)cc2)C1=O` [Compound 36], the IC50 was 20.6 µM in experiment [1] (setting [8]) and 17.1 µM in experiment [2] (setting [9]). Also, the Selectivity in experiment [1] (first library) stood at 0.8.
Taken in the same sequence, the figures for `C=CCOC(=O)[C@H](Cc1ccccc1)N1C(=O)CC(=O)N(CCc2ccc(Cl)cc2)C1=O` [Compound 37] were 9.4 µM, 9.1 µM and 1.0.
The corresponding values for `O=C1CC(=O)N(CCc2cccc(Cl)c2)C(=O)N1CCCCc1ccccc1` [Compound 38] are 1.3 µM, 6.2 µM and 4.9.
Taken in the same sequence, the figures for `O=C1CC(=O)N(CCc2ccc(Cl)c(Cl)c2)C(=O)N1CCCCc1ccccc1` [Compound 39] were 1.3 µM, 3.1 µM and 2.3.
As for `O=C1CC(=O)N(CCc2ccc(Br)cc2)C(=O)N1CCCCc1ccccc1` [Compound 40], the IC50 in experiment [1] (setting [8]) turned out to be 1.1 µM; in experiment [2] (setting [9]), 2 µM. Further, in experiment [1] (first library), the Selectivity was determined as 1.9.
`Cc1ccc(CCN2C(=O)CC(=O)N(CCCCc3ccccc3)C2=O)cc1` [Compound 41]: the IC50 in experiment [1] (setting [8]) was found to be 1.1 µM; in experiment [2] (setting [9]), 15.5 µM. Also, the Selectivity in experiment [1] (first library) was found to be 14.1.
For `O=C1CC(=O)N(CCc2cccc(F)c2)C(=O)N1CCCCc1ccccc1` [Compound 42], the results for the IC50 in experiment [1] (setting [8]) and in experiment [2] (setting [9]) were 1.6 µM and 5.3 µM, respectively. In addition, the Selectivity in experiment [1] (first library) is 3.3.
For the compound `O=C1CC(=O)N(CCc2cccc(C(F)(F)F)c2)C(=O)N1CCCCc1ccccc1` [Compound 43], the 50% inhibitory concentration (IC50) in experiment [1] (setting [8]) was determined as 0.5 µM; in experiment [2] (setting [9]), 1.1 µM. Moreover, in experiment [1] (first library), the Selectivity was determined as 2.3.
Taken in the same sequence, the figures for `CC(CN1C(=O)CC(=O)N(CCCCc2ccccc2)C1=O)c1ccccc1` (stereo not drawn) [Compound 44] were 2.1 µM, 15.8 µM and 7.7.
Taken in the same sequence, the figures for `O=C1CC(=O)N(Cc2ccc([N+](=O)[O-])cc2)C(=O)N1CCCCc1ccccc1` [Compound 45] were 7.7 µM, 4.4 µM and 0.6.
The corresponding values for `O=C1CC(=O)N(CCc2ccc([N+](=O)[O-])cc2)C(=O)N1CCCCc1ccccc1` [Compound 46] are 3.5 µM, 4.1 µM and 1.2.
As for `CN1C(=O)CC(=O)N(Cc2cccc([N+](=O)[O-])c2)C1=O` [Compound 69], the IC50 in experiment [2] came out at 167 µM.
Take `O=C1CC(=O)N(CCc2cccc([N+](=O)[O-])c2)C(=O)N1CCc1cccc([N+](=O)[O-])c1` [Compound 70]: the 50% inhibitory concentration (IC50) in experiment [2] worked out at 173 µM.

As a reminder, the IC50 is the point on the concentration scale where inhibition reaches its midpoint.
